Tests used:
[1] = PET after injection; cases with clinical and neuroradiological diagnosis of Alzheimer's disease; cited from earlier work
[2] = target: T1, synthetic beta-amyloid fibrils (Homo sapiens, UniProt P05067); details: in vitro; cited from earlier work
T1 construct: host or cells: synthetic peptide

PHFs = experiment: Morphological studies of PHFs in the presence of phenothiazines (electron microscopy)
tangle fragments = experiment: Competitive binding assay: displacement of primulin fluorescence from tangle fragments (ifI); parameters: species or system human; details: fluorescence end point
Protocol: IfI material was homogenised in a 0.2 ml glass homogeniser in PBS. To the suspension, test compounds were added to final concentrations ranging from 0.1% to 0.00001%. […] The suspensions were transferred to a glass slide, and examined by fluorescence microscopy across a range of fluorescence filter blocks, covering excitation and emission wavelengths between 380 nm and 570 nm. The end point sought in these observations was displacement of typical primulin fluorescence from tangle fragments.

tau-tau binding [3] = experiment: Solid-phase tau-tau binding assay, tau Preparation 1 (WO96/30766); assay type: biochemical, human
Description: This point was further examined by studying the potency of typical aggregated tau ligands as tau-aggregation inhibitors. It has been shown previously that tau aggregation inhibitors (e.g. diaminophenothiazines) can be identified on the basis of inhibition of tau-tau binding in a solid-phase assay (WO 96/30766). […] Thus, although these compounds are potent ligands for tau within the PHF-core, they are at most weak inhibitors at the site required for inhibition of tau-tau binding.
Large-scale purification (1 liter bacterial culture) of tau fragments was carried out as described by Goedert and Jakes (1990, EMBO J., 9, 4225-4230), with minor modifications. Cells were disrupted by rapid freezing of the cell pellet in liquid nitrogen. The pellets were then suspended in buffer containing 50 mM PIPES, 1 mM dithiothreitol (DTT) (pH 6.8). The thermostable proteins in the supernatant were dialysed against PIPES/DTT, then applied to a column containing phosphocellulose equilibrated in the same buffer. […] Fractions were analysed by SDS-PAGE and both Coomassie staining and immunoblotting. […] Protein concentrations were measured by the Lowry method (Harrington C R (1990), “Lowry protein assay containing sodium dodecyl sulphate in microtitre plates for protein determinations on fractions from brain tissue”, Analytical Biochemistry 186: 285-287).

tau-tau binding [4] = target: T2, tau-tau binding (Homo sapiens, UniProt P10636); experiment: Solid-phase tau-tau binding assay (dGA solid phase, dGAE liquid phase), tau Preparation 2; assay type: biochemical; details: Preparation 2
T2 construct: a truncated tau protein corresponding to the core fragment and terminating at Ala390-dGA; dGAE which terminates at Glu-391; made in house; host or cells: E. coli BL21 (DE3), pRK172; DE52 flow-through, P11 phosphocellulose, PEG concentration, no heat step (Preparation 2)
T2 sequence (P10636 614-708 limits assumed): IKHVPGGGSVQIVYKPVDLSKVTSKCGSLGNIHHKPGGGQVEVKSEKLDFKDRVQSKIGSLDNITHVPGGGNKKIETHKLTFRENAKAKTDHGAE
Protocol: Preparation 2 differs from Preparation 1 above in the following respects: (1) The concentration of cells at the sonication stage is increased by 5-fold. (2) A batchwise adsorption of non-tau proteins to DE52 is included. (3) The proteins are not subjected to heat treatment. (4) The final step involves concentration using polyethylene glycol.
Escherichia coli is grown in 2×TY medium (Oxoid) supplemented with ampicillin (50 micrograms per ml) to late-logarithmic phase. Cells from 5 liters of culture are harvested by centrifugation and the cell pellets frozen rapidly over liquid nitrogen. The pellets are taken up with 50 mM PIPES (pH 6.8) containing 1 mM EDTA, 1 mM dithiothreitol and 1 mM phenylmethylsulphonylfluoride (PMSF) and bacteria lysed by sonication (2×3 min) at 4 C. The mixture is centrifuged at 10,000 rpm for 20 min. The supernatant is rotated with 1 gram of Whatman DE52 for 3 hr at 4 C. The mixture is separated on a column and the flow-through material that fails to bind to DE52 is incubated for 3 hr at 4 C, with rotation, with 0.4 g of Whatman P11 (freshly regenerated according to manufacturer's recommendations). The column is washed with column buffer (50 mM PIPES, pH 6.8 containing 1 mM EGTA, 5 mM EDTA, 0.2 mM MgCl2, 5 mM β-mercaptoethanol and 1 mM PMSF). Tau protein is eluted stepwise with a 0.1 to 1 M gradient of KCl in column buffer. Fractions containing tau (determined by immunoassay) are pooled and dialysed against 80 mM PIPES (pH6.8) containing 1 mM EGTA, 1 mM MgCl2 and 5 mM β-mercatoethanol, using dialysis tubing with a molecular weight cut-off of 1,000. The dialysate is concentrated by applying polyethylene glycol 8000 to the outside of the sac for 2-3 hr. The final concentration of tau ranged from 3 to 10 mg per ml.
When the proteins dGA and dGAE were prepared as indicated above (“Preparation 2”), the properties of the tau-tau binding assay were altered relative to the properties obtained using the preparative method described in WO96/30766 (“Preparation 1”).
The assay is performed using 96 well PVC plates (Falcon Cat. No. 353912 are used), and the following steps:
1. 50 μl dGA (˜10 μg/ml) in carbonate buffer, incubate 1 h at 37° C.
(Carbonate buffer: 50 mM carbonate bicarbonate, pH 9.6 (Na2CO3 1.59 g/l, NaHCO3 2.93 g/l))
2. Wash plate in 0.05% Tween-20.
3. 200 μl PBS+2% Marvel, incubate 1 h at 37° C.
4. Rinse plate 2× in deionised water, then wash in 0.05% Tween-20.
5. 50 μl dGAE (˜10 μg/ml) plus drug in PBS+1% fish skin gelatin+0.05% Tween-20, incubate 1 h at 37° C.
6. Wash plate in 0.05% Tween-20.
7. 50 μl antibody 423 (1:10 dilution in PBS+2% Marvel), incubate 1 h at 37° C.
8. Rinse plate 2× in deionised water, then wash in 0.05% Tween-20.
9. 50 μl HRP-anti-mouse (1:1000 dilution in PBS+0.05% Tween-20), incubate 1 h at 37° C.
10. Wash plate in 0.05% Tween-20, then rinse 1× with deionised water.
11. 50 μl substrate solution, read immediately initial rate over 2 min in plate reader at OD650.
(Substrate solution: 50 mM sodium acetate, pH 5.0+TMB (1 ml/100 ml of a 10 mg/ml solution in DMSO)+H2O2 (10 μl/100 ml)).

tau-tau binding [5] = target: T2, tau-tau binding; experiment: Relief of DMMB inhibition of tau-tau binding by ligands (Preparation 2); assay type: biochemical
Description: 2. using tau proteins prepared in this manner for testing putative ligands in the tau-tau binding assay provided in WO96/30766 to identify substances which have minimal or entirely absent activity as tau-aggregation inhibitors or enhance tau-tau binding at high concentrations; 3. testing putative ligands in the presence of an exemplary potent tau-aggregation inhibitor, such as DMMB, at an inhibitory concentration; 4. putative ligands can be identified by the property that they lack capacity to block tau-tau binding through the repeat domain, but block the inhibitory activity of a potent tau-aggregation inhibitor.
(ii) contacting (a) a tau protein or a derivative thereof containing the tau core fragment bound to a solid phase so as to expose a high affinity tau capture site (e.g. a truncated tau protein corresponding to the core fragment and terminating at Ala390-dGA), with (b) a liquid phase tau protein or derivative thereof capable of binding to the solid phase tau protein or derivative (e.g. dGAE which terminates at Glu-391), and (c) said selected first agent and (d) a second agent known to be tau-tau binding inhibitor, (iii) selecting a first agent which fully or partially relieves the inhibition of binding of the liquid phase tau protein or derivative of (b) to the solid phase tau protein or derivative of (a) by the inhibitor (d).
Similar results are shown for 15 μM DMMB in the presence of increasing concentrations of Primulin (c) and Thiazin Red (d).
For each graph, Tau-Tau binding is shown in the presence of constant concentrations of DMMB co-incubated with Primulin at 0×, 1×, 5×, 10×, 100× the DMMB concentrations shown.
This implies that the Tau-aggregation enhancement effect of these ligands is proportional to the fraction of ligand-binding sites occupied, presumably within the Tau aggregates introduced into the aqueous-phase of the assay. The mean Bmax for both ligands is ˜1.6. That is, the maximum ligand effect is to produce 1.6-fold the Tau-Tau binding signal seen in the absence of any drug. The mean Kd for this effect is ˜15×. That is, for any given concentration of DMMB>4 μM, 50% of maximal enhancement of Tau-Tau binding can be seen when the ligand molar excess is 15-fold relative to the concentration of DMMB.

T1 sequence (P05067 672-711 limits assumed): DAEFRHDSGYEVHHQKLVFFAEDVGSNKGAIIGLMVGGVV

CC(=C(C#N)C#N)c1ccc2cc(N(C)CC[18F])ccc2c1 [FDDNP, 2-(1-{6-[(2-[^18F]fluoroethyl)(methyl)amino]-2-naphthyl}ethylidene)malononitrile]
relative retention time (RRT) [1]: increased relative retention time | binding to synthetic beta-amyloid fibrils [2]: bind with high affinity

CN(C)c1ccc2nc3ccc(=[N+](C)C)cc-3sc2c1 [methylene blue]
disruption of PHF structure (PHFs): disruption of PHF structure in the presence of sufficiently high concentrations

Cc1ccc2sc(-c3ccc(N=Nc4cc(S(=O)(=O)[O-])c5ccccc5c4O)cc3)nc2c1S(=O)(=O)[O-].[Na+].[Na+] [thiazin red]
competition with / displacement of other ligands at tangles (tangle fragments): compete with primulin at equivalent concentrations | inhibition of tau-tau binding (tau-tau binding [3]): weak inhibitors of tau-tau binding | inhibition of tau-tau binding (tau-tau binding [4]): no inhibitory activity | BMax of tau-tau binding (tau-tau binding [5]; 5 μM DMMB, Binding=(BMax×[ligand])/(Kd+[ligand])): 1.64 | reversal of inhibitory effect of DMMB on tau-tau binding (tau-tau binding [5]; co-incubation with increasing molar excess of ligand): completely reversed
